Test [1] has as its target G protein-coupled receptor kinase 5 (Homo sapiens) (UniProt P34947). The test is described as follows: Inhibition of human recombinant GPRK5 at 40 nM related to control ULK1.
For test [2], the target named is Serine/threonine-protein kinase MARK2 (Homo sapiens) (UniProt Q7KZI7). The test can be described thus: Inhibition of human recombinant MARK2 at 40 nM related to control ULK1.
The target of test [3] is Ephrin type-A receptor 5 (Homo sapiens) (UniProt P54756). The test can be described thus: Inhibition of human recombinant EphA5 at 40 nM in presence of ATP by radiometric assay relative to control.
Test [4] concerns the target Mitogen-activated protein kinase 11 (Homo sapiens) (UniProt Q15759). The test can be described thus: Inhibition of human recombinant p38beta at 40 nM in presence of ATP by radiometric assay relative to control.
For the next test, the system named is U2OS. The test is described as follows: cells. As to conditions: Homo sapiens.
Test [5] deals with T1, Dual specificity tyrosine-phosphorylation-regulated kinase 2 (Homo sapiens) (UniProt Q92630).
T1 sequence (whole entry): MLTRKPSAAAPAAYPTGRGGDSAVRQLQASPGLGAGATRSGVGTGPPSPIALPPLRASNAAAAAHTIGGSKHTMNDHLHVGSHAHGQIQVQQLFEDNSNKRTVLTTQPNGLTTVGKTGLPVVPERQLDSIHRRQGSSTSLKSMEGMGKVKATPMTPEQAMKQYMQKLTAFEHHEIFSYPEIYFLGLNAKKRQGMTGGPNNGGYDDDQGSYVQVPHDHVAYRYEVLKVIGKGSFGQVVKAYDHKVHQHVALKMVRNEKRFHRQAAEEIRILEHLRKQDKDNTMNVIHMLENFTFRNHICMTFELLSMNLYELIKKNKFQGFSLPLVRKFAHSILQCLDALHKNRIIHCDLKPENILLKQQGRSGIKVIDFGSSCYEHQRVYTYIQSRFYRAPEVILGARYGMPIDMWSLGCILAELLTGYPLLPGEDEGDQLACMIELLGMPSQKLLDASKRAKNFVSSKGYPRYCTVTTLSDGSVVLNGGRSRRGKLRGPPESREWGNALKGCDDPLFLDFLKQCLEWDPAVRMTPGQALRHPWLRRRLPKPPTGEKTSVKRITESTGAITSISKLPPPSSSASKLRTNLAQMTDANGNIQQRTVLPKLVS
The test can be described thus: Inhibition of human recombinant DYRK2 at 40 nM related to control ULK1.

Test [6] addresses Protein kinase C alpha type (Homo sapiens) (UniProt P17252). The test can be described thus: Inhibition of human recombinant PKCa at 500 nM in presence of ATP by radiometric assay relative to control.
The target of test [7] is Calcium/calmodulin-dependent protein kinase type 1D (Homo sapiens) (UniProt Q8IU85). The test can be described thus: Inhibition of human recombinant CaMK1d at 500 nM related to control ULK1.
Test [8] has as its target Serine/threonine-protein kinase MRCK alpha (Homo sapiens) (UniProt Q5VT25). The test is described as follows: Inhibition of human recombinant MRCKa at 500 nM in presence of ATP by radiometric assay relative to control.
For test [9], the target named is T2, Serine/threonine-protein kinase PLK4 (Homo sapiens) (UniProt O00444).
T2 sequence (whole entry): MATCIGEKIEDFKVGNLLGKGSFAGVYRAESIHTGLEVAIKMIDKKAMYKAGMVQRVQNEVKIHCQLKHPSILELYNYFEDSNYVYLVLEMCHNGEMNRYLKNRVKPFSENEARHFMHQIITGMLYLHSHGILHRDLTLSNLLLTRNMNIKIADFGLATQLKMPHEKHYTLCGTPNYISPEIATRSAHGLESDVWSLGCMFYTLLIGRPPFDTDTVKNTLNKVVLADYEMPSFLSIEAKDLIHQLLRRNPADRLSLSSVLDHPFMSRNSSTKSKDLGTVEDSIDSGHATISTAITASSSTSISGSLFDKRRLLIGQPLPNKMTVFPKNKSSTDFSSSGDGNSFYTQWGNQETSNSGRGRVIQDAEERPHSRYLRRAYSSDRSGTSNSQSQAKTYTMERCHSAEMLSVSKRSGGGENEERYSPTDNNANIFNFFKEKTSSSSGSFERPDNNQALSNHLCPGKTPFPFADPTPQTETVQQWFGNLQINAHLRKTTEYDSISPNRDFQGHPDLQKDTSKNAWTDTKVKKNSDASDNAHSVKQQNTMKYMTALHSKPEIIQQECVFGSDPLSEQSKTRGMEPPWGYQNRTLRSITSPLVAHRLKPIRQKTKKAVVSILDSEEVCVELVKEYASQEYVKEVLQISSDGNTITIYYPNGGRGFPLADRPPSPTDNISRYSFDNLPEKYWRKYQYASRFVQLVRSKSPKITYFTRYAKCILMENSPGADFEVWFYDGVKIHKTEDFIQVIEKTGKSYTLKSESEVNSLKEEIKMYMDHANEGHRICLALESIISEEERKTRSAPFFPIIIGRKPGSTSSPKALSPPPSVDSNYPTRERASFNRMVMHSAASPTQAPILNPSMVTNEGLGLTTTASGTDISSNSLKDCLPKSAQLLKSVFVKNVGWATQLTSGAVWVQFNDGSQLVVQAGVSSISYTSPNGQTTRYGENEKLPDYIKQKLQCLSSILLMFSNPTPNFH
The test can be described thus: Inhibition of human recombinant PLK4 at 500 nM in presence of ATP by radiometric assay relative to control.

In test [10] the target is Serine/threonine-protein kinase 26 (Homo sapiens) (UniProt Q9P289). The test can be described thus: Inhibition of human recombinant MST4 at 15 nM in presence of ATP by radiometric assay relative to control.
The target of test [11] is Calcium/calmodulin-dependent protein kinase type 1D (Homo sapiens) (UniProt Q8IU85). The test can be described thus: Inhibition of human recombinant CaMK1d at 15 nM related to control ULK1.
Test [12] concerns the target Protein kinase C delta type (Homo sapiens) (UniProt Q05655). The test is described as follows: Inhibition of human recombinant PKCd at 15 nM in presence of ATP by radiometric assay relative to control.
In test [13] the target is T3, Serine/threonine-protein kinase Sgk3 (Homo sapiens) (UniProt Q96BR1).
T3 sequence (whole entry): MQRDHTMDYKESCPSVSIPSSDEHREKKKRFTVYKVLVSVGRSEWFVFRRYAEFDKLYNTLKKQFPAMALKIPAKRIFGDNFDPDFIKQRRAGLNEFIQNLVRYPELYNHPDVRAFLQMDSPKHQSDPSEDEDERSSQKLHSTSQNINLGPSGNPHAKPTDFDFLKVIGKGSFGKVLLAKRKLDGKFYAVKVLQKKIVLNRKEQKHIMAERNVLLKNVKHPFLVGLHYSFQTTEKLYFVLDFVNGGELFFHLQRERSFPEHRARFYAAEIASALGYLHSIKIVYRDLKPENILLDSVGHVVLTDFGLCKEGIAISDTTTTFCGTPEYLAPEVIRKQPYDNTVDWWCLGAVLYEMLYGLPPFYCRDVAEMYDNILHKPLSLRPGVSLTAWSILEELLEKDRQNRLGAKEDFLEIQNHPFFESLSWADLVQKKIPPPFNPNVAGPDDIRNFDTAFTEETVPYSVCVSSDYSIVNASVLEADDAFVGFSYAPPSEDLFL
The test can be described thus: Inhibition of human recombinant SGK3 at 15 nM related to control ULK1.

Each structure is given as a SMILES string.

Chain of Calcium/calmodulin-dependent protein kinase type 1D (Homo sapiens) (Q8IU85 whole entry, looked up): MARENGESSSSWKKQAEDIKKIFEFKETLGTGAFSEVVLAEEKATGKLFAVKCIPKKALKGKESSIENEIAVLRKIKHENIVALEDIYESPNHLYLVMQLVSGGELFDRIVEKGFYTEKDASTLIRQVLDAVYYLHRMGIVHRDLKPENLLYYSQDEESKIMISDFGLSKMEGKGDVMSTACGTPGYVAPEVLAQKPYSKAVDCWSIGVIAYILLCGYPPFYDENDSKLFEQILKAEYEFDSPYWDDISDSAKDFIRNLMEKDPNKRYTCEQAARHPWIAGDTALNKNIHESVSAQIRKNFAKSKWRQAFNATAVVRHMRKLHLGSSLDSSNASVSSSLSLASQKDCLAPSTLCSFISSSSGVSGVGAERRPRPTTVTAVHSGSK
Chain of Serine/threonine-protein kinase 26 (Homo sapiens) (Q9P289 2-416 limits assumed): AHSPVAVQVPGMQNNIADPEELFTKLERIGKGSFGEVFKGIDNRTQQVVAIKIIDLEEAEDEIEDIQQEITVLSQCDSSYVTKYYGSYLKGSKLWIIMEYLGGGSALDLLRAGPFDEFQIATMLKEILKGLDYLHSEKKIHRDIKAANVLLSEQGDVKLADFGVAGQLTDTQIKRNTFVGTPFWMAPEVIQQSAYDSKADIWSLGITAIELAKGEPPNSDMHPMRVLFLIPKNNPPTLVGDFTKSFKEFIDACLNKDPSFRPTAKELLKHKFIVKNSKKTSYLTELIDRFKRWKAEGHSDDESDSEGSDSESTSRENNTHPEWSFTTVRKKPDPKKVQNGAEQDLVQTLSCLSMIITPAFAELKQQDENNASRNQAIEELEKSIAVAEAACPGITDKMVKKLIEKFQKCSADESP
Chain of Protein kinase C delta type (Homo sapiens) (Q05655 whole entry, looked up): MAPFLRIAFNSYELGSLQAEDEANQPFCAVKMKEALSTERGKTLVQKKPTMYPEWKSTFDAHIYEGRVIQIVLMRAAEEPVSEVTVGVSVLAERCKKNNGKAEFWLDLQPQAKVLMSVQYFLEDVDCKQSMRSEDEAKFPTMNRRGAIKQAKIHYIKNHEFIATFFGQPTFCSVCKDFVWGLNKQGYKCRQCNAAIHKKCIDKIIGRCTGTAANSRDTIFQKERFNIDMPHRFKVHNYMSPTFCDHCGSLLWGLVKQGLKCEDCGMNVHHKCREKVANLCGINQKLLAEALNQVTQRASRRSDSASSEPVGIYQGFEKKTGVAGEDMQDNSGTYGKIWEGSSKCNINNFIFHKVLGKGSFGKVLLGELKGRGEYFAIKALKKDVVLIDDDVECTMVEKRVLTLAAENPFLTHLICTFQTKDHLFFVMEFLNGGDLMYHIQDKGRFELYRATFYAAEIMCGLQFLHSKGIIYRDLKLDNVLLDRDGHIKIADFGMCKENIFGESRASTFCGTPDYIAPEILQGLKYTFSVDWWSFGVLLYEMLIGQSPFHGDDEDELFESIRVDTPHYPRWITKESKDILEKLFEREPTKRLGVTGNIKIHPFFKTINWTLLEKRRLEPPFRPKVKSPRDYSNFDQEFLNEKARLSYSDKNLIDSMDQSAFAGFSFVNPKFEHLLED
Chain of Mitogen-activated protein kinase 11 (Homo sapiens) (Q15759 whole entry): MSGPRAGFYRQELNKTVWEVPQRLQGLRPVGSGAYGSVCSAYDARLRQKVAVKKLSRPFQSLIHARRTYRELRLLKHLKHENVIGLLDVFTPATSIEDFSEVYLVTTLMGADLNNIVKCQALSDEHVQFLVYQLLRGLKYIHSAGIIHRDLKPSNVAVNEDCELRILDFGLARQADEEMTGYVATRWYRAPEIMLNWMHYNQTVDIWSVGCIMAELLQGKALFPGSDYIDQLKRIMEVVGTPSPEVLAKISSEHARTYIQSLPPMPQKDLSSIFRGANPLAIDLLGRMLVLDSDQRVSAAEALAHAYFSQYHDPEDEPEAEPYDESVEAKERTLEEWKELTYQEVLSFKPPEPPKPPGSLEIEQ
Chain of G protein-coupled receptor kinase 5 (Homo sapiens) (P34947 whole entry, looked up): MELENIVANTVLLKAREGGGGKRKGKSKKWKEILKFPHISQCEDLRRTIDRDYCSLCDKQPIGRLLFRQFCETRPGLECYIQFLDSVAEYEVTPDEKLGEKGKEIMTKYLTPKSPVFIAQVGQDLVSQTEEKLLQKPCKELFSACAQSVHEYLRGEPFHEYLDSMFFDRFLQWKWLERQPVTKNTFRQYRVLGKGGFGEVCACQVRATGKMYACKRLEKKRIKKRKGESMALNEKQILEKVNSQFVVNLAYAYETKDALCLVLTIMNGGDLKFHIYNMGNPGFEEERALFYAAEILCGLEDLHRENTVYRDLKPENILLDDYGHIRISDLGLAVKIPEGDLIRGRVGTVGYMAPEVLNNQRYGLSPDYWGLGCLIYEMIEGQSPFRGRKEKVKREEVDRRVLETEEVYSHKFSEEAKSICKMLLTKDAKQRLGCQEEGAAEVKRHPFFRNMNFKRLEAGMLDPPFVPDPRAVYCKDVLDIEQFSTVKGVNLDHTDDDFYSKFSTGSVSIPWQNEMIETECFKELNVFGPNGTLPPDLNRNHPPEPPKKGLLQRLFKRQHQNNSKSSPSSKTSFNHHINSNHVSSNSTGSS
Chain of Ephrin type-A receptor 5 (Homo sapiens) (P54756 whole entry): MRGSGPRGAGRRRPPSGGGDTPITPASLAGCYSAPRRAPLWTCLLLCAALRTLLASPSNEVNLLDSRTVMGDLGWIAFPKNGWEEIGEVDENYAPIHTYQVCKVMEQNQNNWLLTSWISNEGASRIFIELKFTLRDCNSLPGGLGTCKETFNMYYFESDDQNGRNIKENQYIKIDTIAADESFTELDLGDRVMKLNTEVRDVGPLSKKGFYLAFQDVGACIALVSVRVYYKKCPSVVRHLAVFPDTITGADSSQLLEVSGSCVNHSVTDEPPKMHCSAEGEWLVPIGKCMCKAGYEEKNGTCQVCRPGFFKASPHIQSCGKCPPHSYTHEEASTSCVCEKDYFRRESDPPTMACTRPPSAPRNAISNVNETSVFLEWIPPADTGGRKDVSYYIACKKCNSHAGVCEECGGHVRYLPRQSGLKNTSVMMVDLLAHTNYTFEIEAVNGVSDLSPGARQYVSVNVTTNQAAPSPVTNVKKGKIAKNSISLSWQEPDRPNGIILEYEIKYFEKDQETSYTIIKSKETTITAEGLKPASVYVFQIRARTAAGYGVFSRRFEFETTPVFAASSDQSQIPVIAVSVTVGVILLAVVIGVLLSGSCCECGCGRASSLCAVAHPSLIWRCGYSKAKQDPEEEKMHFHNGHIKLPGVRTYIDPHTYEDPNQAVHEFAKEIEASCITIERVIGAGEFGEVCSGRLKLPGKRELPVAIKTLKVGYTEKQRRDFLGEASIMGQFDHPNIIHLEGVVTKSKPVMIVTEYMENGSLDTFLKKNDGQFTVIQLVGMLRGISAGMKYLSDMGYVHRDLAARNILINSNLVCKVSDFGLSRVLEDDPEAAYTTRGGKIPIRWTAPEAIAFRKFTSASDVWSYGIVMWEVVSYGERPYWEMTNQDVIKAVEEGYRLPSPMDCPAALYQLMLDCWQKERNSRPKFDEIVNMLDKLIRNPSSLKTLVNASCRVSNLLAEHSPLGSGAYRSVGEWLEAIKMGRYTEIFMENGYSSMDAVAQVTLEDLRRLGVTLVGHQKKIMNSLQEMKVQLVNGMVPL
Chain of Serine/threonine-protein kinase MARK2 (Homo sapiens) (Q7KZI7 whole entry): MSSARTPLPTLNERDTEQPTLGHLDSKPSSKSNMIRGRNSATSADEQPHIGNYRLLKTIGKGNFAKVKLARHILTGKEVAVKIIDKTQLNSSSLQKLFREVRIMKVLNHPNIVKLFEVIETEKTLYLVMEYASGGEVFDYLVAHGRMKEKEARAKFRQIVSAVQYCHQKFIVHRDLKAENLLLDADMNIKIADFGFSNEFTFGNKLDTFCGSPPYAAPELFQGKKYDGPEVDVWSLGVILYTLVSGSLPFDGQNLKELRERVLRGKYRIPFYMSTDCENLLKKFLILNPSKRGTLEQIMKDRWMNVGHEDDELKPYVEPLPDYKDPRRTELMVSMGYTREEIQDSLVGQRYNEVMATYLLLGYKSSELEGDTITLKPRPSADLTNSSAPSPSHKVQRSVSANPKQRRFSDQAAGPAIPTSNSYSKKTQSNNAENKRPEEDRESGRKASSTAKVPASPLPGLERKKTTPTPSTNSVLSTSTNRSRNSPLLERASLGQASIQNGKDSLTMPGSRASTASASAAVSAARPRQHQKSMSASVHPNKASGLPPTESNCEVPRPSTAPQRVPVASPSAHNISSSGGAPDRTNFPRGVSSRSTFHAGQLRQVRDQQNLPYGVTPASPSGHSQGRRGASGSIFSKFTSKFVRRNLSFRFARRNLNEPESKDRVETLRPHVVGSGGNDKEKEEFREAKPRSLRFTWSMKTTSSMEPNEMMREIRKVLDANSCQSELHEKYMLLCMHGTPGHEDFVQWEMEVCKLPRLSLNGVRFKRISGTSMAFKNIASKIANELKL
Description for U2OS: Inhibition of autophagy in human U2OS cells assessed as BafA1-induced LC3B-II accumulation preincubated with compound for 3 hrs and followed by BafA1 induction and measured after 1.5 hrs by immunoblotting analysis

`O=C(N[C@@H](C1CC1)C(F)(F)F)c1cc(-c2cnn3cc(-c4ccc(F)cc4)cnc23)cs1`: the fold change (FC) is 0.01 in [1], 0.16 in test [2] and 0.15 in [5]. The inhibition – broadly, the percentage by which the read-out fell short of the control – in test [3] came to 0%; in test [4], 10%. In addition, the EC50 (commonly the concentration at which the effect is half-maximal) in the test with U2OS turned out to be 700 nM.

In the case of `CNC(=O)c1ccccc1Oc1nc(Nc2cc(OC)c(OC)c(OC)c2)ncc1Br`, the inhibition was determined as 0% in [6], 7% in [8] and 46% in test [9]. Also, the fold change (FC) in test [7] is 0.07.

`CC(C)[C@H](NC(=O)c1cc(-c2cnn3cc(-c4ccc(OCCN5CCCCC5)cc4)cnc23)cs1)C(F)(F)F`: the inhibition in test [10] and in [12] was 0% each time. Besides, the fold change (FC) in test [11] stood at 0; in test [13] it was 0.05.
